Assay results taken from publication PMC12211128, “Safety, tolerability, pharmacokinetic and pharmacodynamic effects of the muscarinic M1 positive allosteric modulator VU0467319 for Alzheimer’s disease: a single ascending-dose study in healthy participants” (Alzheimer's Research & Therapy, 2025).

Experiment: Urine pharmacokinetics, single ascending dose and food effect studies
Format: in vivo, human
Conditions: for CLR (renal clearance) / Max_Rate (maximum observed excretion rate) / Total %fe / Total Ae: mean (SD); for Max_Rate (maximum observed excretion rate) / Total %fe / Total Ae / Tmax_Rate: urine; for Tmax_Rate: median (min, max)
Procedure: Blood samples (4 mL) were obtained by direct venipuncture into K2 EDTA tubes at 0.5 h pre-dose and at 0.5, 1, 1.5, 2, 2.5, 3, 5, 7, 9, 12, 24, 26, 28, 36, 48 and 144-hours post-dose. […] Urine samples for PK quantification were collected at pre-dose and 2, 5, 12, 24, 36 and 144-hours post-dose.
Determination of plasma and urine concentrations of VU319 and metabolite VU0481424 (VU424) was carried out in compliance with Good Laboratory Practice using a validated method at Illinois Institute of Technology Research Institute (IITRI) laboratories. Pharmacokinetic endpoints included the following VU319 parameters for plasma: area under the plasma concentration-time curve (AUC0 − 48); area under the plasma concentration-time curve extrapolated to infinity (AUC0−∞); percentage of the extrapolated area under the plasma concentration-time curve (%AUCextrap); maximum observed plasma concentration (Cmax); time (in hours) at which Cmax occurred (Tmax); clearance (Cl/F); elimination half-life (t1/2) and volume of distribution (Vd/F). Pharmacokinetic endpoints for VU319 for urine included the following parameters: renal clearance (CLu); amount excreted in urine (Ae) and percent excreted in urine (Ae%).
Single-dose PK parameters were derived from the plasma time concentrations and urinary concentrations. Pharmacokinetic parameters were summarized for each dose group using standard descriptive statistics. Summary statistics (mean, SD, min, max, coefficient of variation %) were calculated for each PK parameter. Plasma samples collected outside of the permitted windows (± 5 min for 0 to 48 h, inclusive; ±3 h for 72 to 144 h, inclusive) were flagged, footnoted in listings of PK concentration data, and excluded from the summary statistics and mean graphs of concentration data. However, these values were used in the calculation of the PK parameters and were also included in the individual concentration/time listings and figures. In this study, no concentration values were excluded due to implausibility.
Missing pre-dose PK concentrations were imputed as 0 in PK parameter calculations. Otherwise, missing data were not imputed. Actual post-dose sampling times were used in the calculation of plasma PK parameters and in the generation of individual concentration-time profiles. Nominal sampling times were used as a replacement for unknown or missing actual times and for the pre-dose values. Nominal sampling timepoints were used in the generation of mean plots and summary tables. For urine samples, nominal intervals were used. All PK analyses were performed using Statistical Analysis Software (SAS®; SAS Institute Inc., Cary, NC) version 9.4.

[1] = VU319 120 mg oral, fasted, food effect study
[2] = VU319 120 mg oral, fed, food effect study

SMILES: Cn1cc2c(-c3cc(F)c(CN4Cc5ncccc5C4=O)c(F)c3)cccc2n1 [VU319]
- CLR (renal clearance) (VU319 60 mg oral, SAD): 1.25 (0.303) mL/h
- CLR (renal clearance) (VU319 120 mg oral, SAD): 1.16 (0.537) mL/h
- CLR (renal clearance) [1]: 1.24 (0.36) mL/h
- CLR (renal clearance) [2]: 1.48 (0.4) mL/h
- CLR (renal clearance) (VU319 240 mg oral, SAD): 1.13 (0.657) mL/h
- CLR (renal clearance) (VU319 400 mg oral, SAD): 0.97 (0.42) mL/h
- CLR (renal clearance) (VU319 600 mg oral, SAD): 0.673 (0.34) mL/h
- Total %fe (fraction of the dose excreted unchanged in urine) (all dose levels): < 0.1%
- Max_Rate (maximum observed excretion rate) (VU319 60 mg oral, SAD): 0.0024 (0.0012) mg/h
- Total %fe (VU319 60 mg oral, SAD): 0.075 (0.034) %
- Total Ae (VU319 60 mg oral, SAD): 0.045 (0.021) mg
- Tmax_Rate (VU319 60 mg oral, SAD): 3.5 (3.5, 8.5) h
- Max_Rate (maximum observed excretion rate) (VU319 120 mg oral, SAD): 0.0032 (0.0025) mg/h
- Total %fe (VU319 120 mg oral, SAD): 0.051 (0.026) %
- Total Ae (VU319 120 mg oral, SAD): 0.061 (0.032) mg
- Tmax_Rate (VU319 120 mg oral, SAD): 8.5 (3.5, 18.0) h
- Max_Rate (maximum observed excretion rate) [1]: 0.0025 (0.0011) mg/h
- Total Ae [1]: 0.068 (0.026) mg
- Tmax_Rate [1]: 8.5 (3.5, 30) h
- Max_Rate (maximum observed excretion rate) [2]: 0.005 (0.003) mg/h
- Total %fe [2]: 0.075 (0.028) %
- Total Ae [2]: 0.091 (0.034) mg
- Tmax_Rate [2]: 6.0 (1.0, 8.5) h
- Max_Rate (maximum observed excretion rate) (VU319 240 mg oral, SAD): 0.0053 (0.0024) mg/h
- Total %fe (VU319 240 mg oral, SAD): 0.039 (0.017) %
- Total Ae (VU319 240 mg oral, SAD): 0.093 (0.042) mg
- Tmax_Rate (VU319 240 mg oral, SAD): 6.0 (3.5, 18.0) h
- Max_Rate (maximum observed excretion rate) (VU319 400 mg oral, SAD): 0.0056 (0.0018) mg/h
- Total %fe (VU319 400 mg oral, SAD): 0.0297 (0.015) %
- Total Ae (VU319 400 mg oral, SAD): 0.12 (0.058) mg
- Tmax_Rate (VU319 400 mg oral, SAD): 6.0 (3.5, 30.0) h
- Max_Rate (maximum observed excretion rate) (VU319 600 mg oral, SAD): 0.0051 (0.0027) mg/h
- Total %fe (VU319 600 mg oral, SAD): 0.024 (0.011) %
- Total Ae (VU319 600 mg oral, SAD): 0.143 (0.065) mg
- Tmax_Rate (VU319 600 mg oral, SAD): 6.0 (3.5, 42.0) h
